In patent publication US11547740B2, “Histone deacetylase (HDAC) inhibitor up-regulates car expression and targeted antigen intensity, increasing antitumor efficacy” (Baylor College of Medicine, priority 2013, dated 2023):

How the values were obtained:
Type in all cases: cell-based, human
[1] = system: MUC1 expression on CAR-MUC1-resistant CAPAN1 cells; experiment: MUC1 antigen expression by flow after decitabine treatment; settings: 1 μM, after 4 days of treatment; 3.5 before exposure
Protocol: One million CAPAN1 cells were fixed with 80% methanol and washed with 0.1% tween-PBS. 1 ug of anti-MUC1 antibody (Abcam Inc, Cambridge, Mass.) was added and incubated at RT for 30 mins. Then cultures were washed and incubated with 0.4 ug of a goat anti-mouse IgG APC antibody (BD Pharmingen, San Jose, Calif.) for 20 mins at 4° C. in the dark. Cells were then washed twice and analyzed.
CAPAN1 cells were culture in a T175 flask using complete IMDM media contained 1 μM 5-Aza-2′-deoxycytidine-decitabine-(Sigma-aldrich Inc., Saint Louis, Mo.) for 4 days, with fresh media+decitabine replenished daily. Subsequently, decitabine-treated CAPAN1 cells were rested for 2 days in complete IMDM, and then co-cultured with CAR-MUC1 T cells.
Finally, to determine whether CAR-T cell potency could be improved by combination with conventional epigenetic modulators, which can increase TAA expression by demethylating DNA, CAPAN1 cells were cultured that had been previously treated with CAR-MUC1 T cells and consequently expressed only low levels of the target antigen, with 1 μM of decitabine, a hypomethylating agent.

[2] = system: CAPAN1 cells initially treated with CAR-MUC1 T cells; experiment: 72 hr co-culture of decitabine-treated resistant CAPAN1 cells with CAR-MUC1 T cells; settings: 1 μM for 4 days, then 72 hr co-culture, E:T 5:1
From the text: Data is reported as the mean±SD; n=4. (b) To determine whether decitabine exposure would upregulate MUC1 expression in this resistant population we evaluated antigen expression, by flow, on CAR-resistant cells (grey histogram) and those cultured in decitabine (black histogram). To next assess whether decitabine treatment resensitized CAPAN1 cells to CAR-MUC1 T cells we performed a 72-hr co-culture experiment using CAPAN1 cells initially treated with CAR-MUC1 T cells (c) then either left untreated or cultured with decitabine as targets (E:T 5:1). After 72-hours retreatment with CAR-MUC1 T cells, residual tumor cells were again quantified by flow. Data is reported as the mean±SD; n=2.
CAPAN1, 293T, 293T-MUC1-mOrange or 293T-PSCA-GFP, were used as targets. Briefly, GFP/CAPAN1 cells were mixed with either OKT3/CD28 blasts or CAR-modified T cells at a 1:5 ratio in the presence of IL2 (50 U/ml) in complete media. For our engineered tumor model, 293T-MUC1-mOrange and 293T-PSCA-GFP (or control 293T cells alone) were mixed at 1:1 ratio then OKT3/CD28 blasts or CAR-modified T cells were added to the mixture; 10:1 (T cells:tumor cell), in the presence of IL2 (50 U/ml) in complete media. After 72 hours all residual cells were collected, counted, stained and then analyzed by flow cytometry (Gallios; Beckman Coulter Inc., Brea, Calif.). […]

[3] = system: CAR-MUC1 expression on effector T cells; experiment: CAR expression on modified T cells cultured with decitabine; settings: after one day and several days
Protocol: T cells were analyzed 3-4 weeks after the generation of the culture by surface-stained with monoclonal antibodies to: CD3, CD4, CD8, CD19, CD56, CD27, CD28, CD45RO, and CD62L (Becton Dickinson B D, Franklin Lakes, N.J.). Cells were washed once with PBS supplemented with 2% FBS, pelleted, and antibodies added in saturating amounts (10 ul). To detect CAR-transduced cells, T cells were stained with a monoclonal antibody Fc-specific cyanine-Cy5-conjugated antibody (Jackson Immuno Research Laboratories, Inc., West Grove, Pa.), which recognizes the IgG1-CH2CH3 component of the receptor. Cells were analyzed using a Gallios Flow cytometer and the data analyzed using Kaluza software (Beckman Coulter Inc., Brea, Calif.).
It is illustrated therein that one can modulate the intensity of CAR-MUC1 expression on effector cells when the effector cells are cultured with decitabine.

Nc1ncn([C@H]2C[C@H](O)[C@@H](CO)O2)c(=O)n1 [decitabine, 5-Aza-2′-deoxycytidine]
intensity of MUC1 expression [1]: 26.0 relative mean fluorescence intensity | re-sensitization of resistant tumor cells to CAR-MUC1 T cell killing [2]: re-sensitizing previously resistant tumor cells to CAR-MUC1 T cell killing | CAR-MUC1 expression on effector cells [3]: increase in expression
